Measurements published in publication PMC4761420 (2015).

Tested on: 5′-TAMRA-AM1A (RNA, riboswitch) GAGGGUGGAACCGCGCUUCGGCGUCCCUC
Assay: fluorescence titration
Settings: 50 mM NaCl; 50 mM MOPS pH 6.5, 0.01 mM EDTA; 100 nM RNA; apparent

- Kd: 54 ± 12 µM
SMILES: NCCCCNCCCN
